Experiment [1] has as its target T1, human PDE4B2 (short isoform) (Homo sapiens, UniProt Q07343).
T1 construct: the full length human PDE4B2 short isoform; made in house
Kind of experiment: PDE assay, [3H]cAMP two-step radio-assay, PDE4B2 short isoform activation. The class given is biochemical. To be noted: 100 μM test compound; mean % increase in counts over basal activity.

The test system of a further experiment is m-IMCD3 cells. Kind of experiment: Inhibition of PGE2-stimulated in vitro cyst formation in m-IMCD3 cells. In kind it is cell-based, mouse. To be noted: Mus musculus, mIMCD3, 144 h, 3 μM; mean cyst area, 100% for (DMSO + PGE2) and 0% for DMSO control; 6 days of culture; read-out: % Cyst area after incubation with 3 μM test compound. A digest of the protocol:
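Mean cyst area after 6 days, expressed relative to DMSO+PGE2 (100%) and DMSO alone (0%), from z-stack images. Mouse m-IMCD3 spheroids grew in collagen I/Matrigel gels and received PGE2 (100 nM final) with test compound (0.1% DMSO) starting 18–24 h post-plating, media refreshed at day 2 or 3.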

The subject of experiment [2] is m-IMCD3 cells expressing PDE4 long forms. Kind of experiment: cAMP levels in PGE2-stimulated 3D m-IMCD3 cell culture media. In kind it is cell-based. To be noted: Mus musculus, mIMCD3; 3 μM test compound; compared to 100% for (DMSO + PGE2); read-out: cAMP level (% of PGE2-stimulated). A general note: Changes in cAMP serve as a functional read-out for many G protein-coupled receptors.

The target of experiment [3] is T2, human PDE4D5 (long isoform) (Homo sapiens, UniProt Q08499).
T2 construct: Using Full-Length Human PDE4 Isoforms; Long Forms PDE4D5, PDE4C3, PDE4B1 and Short Form PDE4B2; made in house; cytosol fraction (100,000 g supernatant) of the cell lysate, not purified
Kind of experiment: PDE assay, [3H]cAMP two-step radio-assay, PDE4D5 long isoform activation. To be noted: 100 μM test compound; mean % increase in counts over basal activity. In kind it is biochemical. The procedure: One suitable method of detecting whether or not a compound is capable of serving as an activator of a PDE4 long form is using a two-step radio-assay procedure described in Experiment 1. In summary, the method involves incubating a PDE4 long form with a test small molecule activator, together with [^3H]-labelled cAMP to assess alterations in the breakdown of cAMP to the 5′-adenosine monophosphate (5′-AMP) product. A sample of the reaction mixture from such an incubation is subsequently treated with snake venom 5′-nucleotidase to allow conversion of the nucleotide [^3H]-labelled 5′-AMP to the uncharged nucleoside [^3H]-labelled adenosine, which can be separated and quantified to assess PDE4 activity and the effect of the test compound (Thompson, W. J. and Appleman, M. M. Biochemistry 10: 311-316, 1971, with some modifications as described in: Marchmont, R. J. and Houslay, M. D. Biochem J. 187: 381-92, 1980). […]
The cell lysate containing recombinant PDE4D5 was transferred into a centrifuge tube and placed into an ultracentrifuge (BECKMAN COULTER) and spun at high speed (100,000 g) for 30 minutes at 4° C. The cytosol fraction was then collected and its protein amount determined using a BCA protein assay. […]

The structures appear in SMILES notation.

T2 sequence (Q08499 1-745 isoform Q08499-6): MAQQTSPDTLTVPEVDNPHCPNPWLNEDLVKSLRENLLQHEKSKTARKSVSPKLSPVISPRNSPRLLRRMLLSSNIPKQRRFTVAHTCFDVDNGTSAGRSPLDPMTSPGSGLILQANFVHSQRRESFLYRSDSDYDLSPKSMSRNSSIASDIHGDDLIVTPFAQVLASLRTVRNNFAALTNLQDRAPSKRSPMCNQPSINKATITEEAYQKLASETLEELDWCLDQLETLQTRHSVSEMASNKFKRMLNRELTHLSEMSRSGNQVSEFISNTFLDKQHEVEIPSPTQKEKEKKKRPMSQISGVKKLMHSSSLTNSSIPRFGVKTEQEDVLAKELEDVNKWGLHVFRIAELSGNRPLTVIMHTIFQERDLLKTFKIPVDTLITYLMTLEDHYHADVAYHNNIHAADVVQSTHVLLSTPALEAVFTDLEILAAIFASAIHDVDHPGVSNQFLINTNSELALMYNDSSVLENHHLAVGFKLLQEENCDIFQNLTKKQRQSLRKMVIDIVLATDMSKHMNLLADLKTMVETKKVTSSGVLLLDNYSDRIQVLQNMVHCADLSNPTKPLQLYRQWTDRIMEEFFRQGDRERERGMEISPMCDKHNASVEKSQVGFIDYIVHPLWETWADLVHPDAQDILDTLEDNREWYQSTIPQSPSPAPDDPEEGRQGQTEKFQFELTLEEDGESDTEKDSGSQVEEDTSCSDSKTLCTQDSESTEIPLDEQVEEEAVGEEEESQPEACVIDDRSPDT
T1 sequence (Q07343 1-564 isoform Q07343-2): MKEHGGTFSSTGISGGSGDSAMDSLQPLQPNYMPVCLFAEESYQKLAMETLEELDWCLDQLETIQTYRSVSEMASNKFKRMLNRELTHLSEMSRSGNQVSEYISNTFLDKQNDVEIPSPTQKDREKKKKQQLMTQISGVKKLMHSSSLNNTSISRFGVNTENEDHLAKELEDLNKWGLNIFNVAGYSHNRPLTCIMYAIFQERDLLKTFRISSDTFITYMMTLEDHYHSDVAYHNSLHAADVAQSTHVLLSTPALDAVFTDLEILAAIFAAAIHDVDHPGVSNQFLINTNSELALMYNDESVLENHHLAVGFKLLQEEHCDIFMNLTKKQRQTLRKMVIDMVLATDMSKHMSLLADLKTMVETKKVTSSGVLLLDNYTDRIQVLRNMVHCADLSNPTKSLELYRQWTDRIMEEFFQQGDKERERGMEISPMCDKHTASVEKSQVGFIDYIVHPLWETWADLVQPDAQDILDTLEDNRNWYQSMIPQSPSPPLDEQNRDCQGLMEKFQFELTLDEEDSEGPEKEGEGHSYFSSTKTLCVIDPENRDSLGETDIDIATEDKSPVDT

Regarding `O=C(CC1CCCC1)N1CCc2nc(N3CCN4CCC[C@H]4C3)sc2C1` [Example 271, (S)-2-cyclopentyl-1-(2-(hexahydropyrrolo[1,2-a]pyrazin-2(1H)-yl)-6,7-dihydrothiazolo[5,4-c]pyridin-5(4H)-yl)ethan-1-one], in experiment [1], the “% increase in PDE4B2 (short isoform) activity at 100 μM” value was −15%. Besides, the figures for the activity at 3 µM (in the experiment with m-IMCD3 cells; in experiment [2]) were 4% and 42%, respectively. Also, the “% increase in PDE4D5 (long isoform) activity at 100 μM” value in experiment [3] was 28%.
In the case of `O=S(=O)(NC1CCCC1)N1CCc2nc(N3C4CCC3CNC4)sc2C1` [Example 108, 2-(3,8-diazabicyclo[3.2.1]octan-8-yl)-N-cyclopentyl-6,7-dihydrothiazolo[5,4-c]pyridine-5(4H)-sulfonamide], the activity at 3 µM in experiment [2] was found to be 53%. For the same compound, the “% increase in PDE4D5 (long isoform) activity at 100 μM” value in experiment [3] stood at 22%.

The values above are taken from US20250388604A1, “Compounds and Their Use as PDE4 Activators” (Mironid Limited, priority 2022, published 2025).
